This passage reports TGI and GI50 results from PubChem BioAssay (NCI).

The structures appear in SMILES notation.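 Following 48 hours of exposure in 96-well plates, responses at five concentrations were used to interpolate endpoints linearly. GI50 is the concentration that inhibits growth by half. TGI denotes the concentration required for complete inhibition of growth.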

The test system of one test is CCRF-CEM leukemia. Kind of test: growth of human tumour cells (NCI), 48 h.
`CC1(Cl)C(=O)NC(=O)N(C2CC(N=[N+]=[N-])C(CO)O2)C1N=[N+]=[N-]` (stereo not drawn) yielded a TGI greater than 100 µM.
For the molecule `COc1ccc2ccc3c(c2c1)CN1CCc2cc(OC)c(OC)cc2C1C3` (stereo not drawn), the TGI was greater than 100 µM.
`OCCC1(O)CCC(O)CC1` (stereo not drawn) displayed a TGI greater than 100 µM.
Still for that read-out and setting: next, `CCCCNC1=C(C(=O)OCC)C(=O)CO1`: greater than 100 µM.
For `CC(C)CC(=O)[O-].CC(C)CC(=O)[O-].N.N.N.N.[Co+3].[O-][Cl+3]([O-])([O-])[O-]`, the GI50 was greater than 100000 nM and the TGI was greater than 100 µM.
`COc1cc(C2c3cc4c(cc3C(NCC(O)CO)C3COC(=O)[C@H]23)OCO4)cc(OC)c1OC` (stereo partly drawn): the TGI is greater than 100 µM.
The molecule `COC(=O)CC(=O)C[P+](c1ccccc1)(c1ccccc1)c1ccccc1` gave a TGI greater than 218 µM.
`CCCCN(CCCC)C(=O)C(=O)C(C#N)c1ccc(C)cc1` (stereo not drawn) yielded a TGI greater than 100 µM.
Same read-out and setting: next, `Cc1ccc(S(=O)(=O)C(CC(=O)N2CCCC2)C(=O)c2ccccc2)cc1` (stereo not drawn): 62.5 µM; `CC1(C)CC(/C=C2/OC(=O)c3ccccc32)=C(C#N)C(=O)O1`: greater than 100 µM; `Cc1nc2c(nc1Cl)nc(Oc1ccc(Cl)cc1)c1ccccc12`: greater than 100 µM.
As for `CC12CC[C@@H](C(C)(C)O)C1[C@@H](O)CC1(C)C2CCC2[C@@]3(C)CC[C@H](O)C(C)(C)C3C(O)C[C@]21C` (stereo partly drawn), the TGI was 27.3 µM.
Take `O=C(CI)NC1Oc2ccccc2-c2oc(=O)c(-c3ccccc3)cc21` (stereo not drawn): the GI50 is 305 nM and the TGI was greater than 100 µM.
On to `CCOC(=O)NC(=O)c1cn(C2OC(COC(=O)CCCCCCCCC(=O)OCC3OC(n4cc(C(=O)NC(=O)OCC)c(=O)[nH]c4=O)C(O)C3O)C(O)C2O)c(=O)[nH]c1=O` (stereo not drawn), for which the TGI is greater than 100 µM.
The molecule `Cc1ccc(C)c(NC(=O)CC/C(=N\NC(=O)C(=O)NN)C(C)C(=O)c2ccc(O)cc2)c1` (stereo not drawn) had a TGI greater than 100 µM.
Take `N=C1CSC2=NC3=C(CCC/C3=C\c3ccccc3)C(c3ccccc3)N12` (stereo not drawn): the TGI amounted to 8.61 µM.
`OCc1ccc2[n+](c1)CCC1c3ccccc3NC21` (stereo not drawn): the TGI is greater than 300 µM.
In turn, `Cc1cc2c(cc1C)[n+](=O)c(C(=O)CC(=O)C(=O)Nc1c(C(C)C)cccc1C(C)C)c(C)n2[O-]` displayed a TGI greater than 100 µM.
Molecule `COc1ccc2cc1Oc1ccc(cc1)CC1c3cc(c(OC)cc3CCN1C)Oc1c3c(cc4c1C(C2)N(C)CC4)OCO3` (stereo not drawn) gave a TGI of 31.7 µM.
Same read-out and setting: in the case of `COc1ccc(OC)c(NC(=O)C(=O)C(C(C)=O)c2nc3ccc(Cl)cc3[nH]c2=O)c1` (stereo not drawn) it was greater than 5 µM.

Another test relates to HL-60(TB) leukemia. The experiment in a line: growth of human tumour cells (NCI), 48 h.
`CC1(Cl)C(=O)NC(=O)N(C2CC(N=[N+]=[N-])C(CO)O2)C1N=[N+]=[N-]` (stereo not drawn) had a TGI greater than 100 µM.
Turning to `COc1ccc2ccc3c(c2c1)CN1CCc2cc(OC)c(OC)cc2C1C3` (stereo not drawn), the TGI is greater than 100 µM.
Same read-out and setting: next, `OCCC1(O)CCC(O)CC1` (stereo not drawn): greater than 100 µM; `CCCCNC1=C(C(=O)OCC)C(=O)CO1`: greater than 100 µM.
In the case of `CC(C)CC(=O)[O-].CC(C)CC(=O)[O-].N.N.N.N.[Co+3].[O-][Cl+3]([O-])([O-])[O-]`, the GI50 is greater than 100000 nM and the TGI was greater than 100 µM.
Take `COc1cc(C2c3cc4c(cc3C(NCC(O)CO)C3COC(=O)[C@H]23)OCO4)cc(OC)c1OC` (stereo partly drawn): the TGI was found to be 0.543 µM.
The same measure, in the same setting: next, `COC(=O)CC(=O)C[P+](c1ccccc1)(c1ccccc1)c1ccccc1`: 149 µM.
Consider `CCCCN(CCCC)C(=O)C(=O)C(C#N)c1ccc(C)cc1` (stereo not drawn), for which the TGI was greater than 100 µM.
Molecule `Cc1ccc(S(=O)(=O)C(CC(=O)N2CCCC2)C(=O)c2ccccc2)cc1` (stereo not drawn) yielded a TGI of 52.7 µM.
In turn, `CC12CC[C@@H](C(C)(C)O)C1[C@@H](O)CC1(C)C2CCC2[C@@]3(C)CC[C@H](O)C(C)(C)C3C(O)C[C@]21C` (stereo partly drawn) had a TGI of 24.9 µM.
`O=C(CI)NC1Oc2ccccc2-c2oc(=O)c(-c3ccccc3)cc21` (stereo not drawn): the GI50 is 2090 nM and the TGI was 4.94 µM.
As for `CCOC(=O)NC(=O)c1cn(C2OC(COC(=O)CCCCCCCCC(=O)OCC3OC(n4cc(C(=O)NC(=O)OCC)c(=O)[nH]c4=O)C(O)C3O)C(O)C2O)c(=O)[nH]c1=O` (stereo not drawn), the TGI was greater than 100 µM.
Molecule `N=C1CSC2=NC3=C(CCC/C3=C\c3ccccc3)C(c3ccccc3)N12` (stereo not drawn) returned a TGI of 6.3 µM.
In turn, `OCc1ccc2[n+](c1)CCC1c3ccccc3NC21` (stereo not drawn) returned a TGI greater than 300 µM.
In the case of `COc1ccc2cc1Oc1ccc(cc1)CC1c3cc(c(OC)cc3CCN1C)Oc1c3c(cc4c1C(C2)N(C)CC4)OCO3` (stereo not drawn), the TGI is 6.66 µM.
As for `COc1ccc(OC)c(NC(=O)C(=O)C(C(C)=O)c2nc3ccc(Cl)cc3[nH]c2=O)c1` (stereo not drawn), the TGI is greater than 50 µM.

A further test has as its system HOP-62 NSCLC. Kind of test: growth of human tumour cells (NCI), 48 h.
For the molecule `CC1(Cl)C(=O)NC(=O)N(C2CC(N=[N+]=[N-])C(CO)O2)C1N=[N+]=[N-]` (stereo not drawn), the TGI was greater than 100 µM.
On the same count and under the same terms, next, `COc1ccc2ccc3c(c2c1)CN1CCc2cc(OC)c(OC)cc2C1C3` (stereo not drawn): greater than 100 µM; `OCCC1(O)CCC(O)CC1` (stereo not drawn): greater than 100 µM; `CCCCNC1=C(C(=O)OCC)C(=O)CO1`: greater than 100 µM.
For the molecule `CC(C)CC(=O)[O-].CC(C)CC(=O)[O-].N.N.N.N.[Co+3].[O-][Cl+3]([O-])([O-])[O-]`, the GI50 is greater than 100000 nM and the TGI is greater than 100 µM.
Molecule `COc1cc(C2c3cc4c(cc3C(NCC(O)CO)C3COC(=O)[C@H]23)OCO4)cc(OC)c1OC` (stereo partly drawn) had a TGI of 0.676 µM.
In turn, `COC(=O)CC(=O)C[P+](c1ccccc1)(c1ccccc1)c1ccccc1` gave a TGI greater than 218 µM.
For the molecule `CCCCN(CCCC)C(=O)C(=O)C(C#N)c1ccc(C)cc1` (stereo not drawn), the TGI was greater than 100 µM.
As to `Cc1ccc(S(=O)(=O)C(CC(=O)N2CCCC2)C(=O)c2ccccc2)cc1` (stereo not drawn), the TGI was greater than 100 µM.
As for `CC1(C)CC(/C=C2/OC(=O)c3ccccc32)=C(C#N)C(=O)O1`, the TGI is greater than 100 µM.
`Cc1nc2c(nc1Cl)nc(Oc1ccc(Cl)cc1)c1ccccc12` registered a TGI of 84.1 µM.
With `O=C(CI)NC1Oc2ccccc2-c2oc(=O)c(-c3ccccc3)cc21` (stereo not drawn), the GI50 is 1870 nM and the TGI amounted to 3.81 µM.
Regarding `CCOC(=O)NC(=O)c1cn(C2OC(COC(=O)CCCCCCCCC(=O)OCC3OC(n4cc(C(=O)NC(=O)OCC)c(=O)[nH]c4=O)C(O)C3O)C(O)C2O)c(=O)[nH]c1=O` (stereo not drawn), the TGI is greater than 100 µM.
The molecule `Cc1ccc(C)c(NC(=O)CC/C(=N\NC(=O)C(=O)NN)C(C)C(=O)c2ccc(O)cc2)c1` (stereo not drawn) yielded a TGI greater than 100 µM.
Regarding `N=C1CSC2=NC3=C(CCC/C3=C\c3ccccc3)C(c3ccccc3)N12` (stereo not drawn), the TGI amounted to 25.6 µM.
The same measure, in the same setting: in the case of `COc1ccccc1C1C(C(=O)Nc2ccccc2)=C(C)NC(C)=C1C(=O)Nc1ccccc1` it was greater than 100 µM; in that of `OCc1ccc2[n+](c1)CCC1c3ccccc3NC21` (stereo not drawn), greater than 300 µM.
Molecule `Cc1cc2c(cc1C)[n+](=O)c(C(=O)CC(=O)C(=O)Nc1c(C(C)C)cccc1C(C)C)c(C)n2[O-]` returned a TGI greater than 100 µM.
With `COc1ccc2cc1Oc1ccc(cc1)CC1c3cc(c(OC)cc3CCN1C)Oc1c3c(cc4c1C(C2)N(C)CC4)OCO3` (stereo not drawn), the TGI worked out at 29.8 µM.
On to `COc1ccc(OC)c(NC(=O)C(=O)C(C(C)=O)c2nc3ccc(Cl)cc3[nH]c2=O)c1` (stereo not drawn), for which the TGI is greater than 50 µM.
`N#CC(C(=N/O)/C(=N/O)C(C#N)c1ccc(Cl)cc1)c1ccc(Cl)cc1` (stereo not drawn) returned a TGI greater than 100 µM.

The subject of another test is COLO 205 colon. The experiment in a line: growth of human tumour cells (NCI), 48 h.
For the molecule `CC1(Cl)C(=O)NC(=O)N(C2CC(N=[N+]=[N-])C(CO)O2)C1N=[N+]=[N-]` (stereo not drawn), the TGI is greater than 100 µM.
On the same count and under the same terms, in the case of `COc1ccc2ccc3c(c2c1)CN1CCc2cc(OC)c(OC)cc2C1C3` (stereo not drawn) it was greater than 100 µM; in that of `OCCC1(O)CCC(O)CC1` (stereo not drawn), greater than 100 µM.
The same measure, in the same setting: next, `CCCCNC1=C(C(=O)OCC)C(=O)CO1`: greater than 100 µM.
Take `CC(C)CC(=O)[O-].CC(C)CC(=O)[O-].N.N.N.N.[Co+3].[O-][Cl+3]([O-])([O-])[O-]`: the GI50 was greater than 100000 nM and the TGI is greater than 100 µM.
As to `COc1cc(C2c3cc4c(cc3C(NCC(O)CO)C3COC(=O)[C@H]23)OCO4)cc(OC)c1OC` (stereo partly drawn), the TGI is 0.364 µM.
`COC(=O)CC(=O)C[P+](c1ccccc1)(c1ccccc1)c1ccccc1`: the TGI is greater than 218 µM.
`Cc1ccc(S(=O)(=O)C(CC(=O)N2CCCC2)C(=O)c2ccccc2)cc1` (stereo not drawn) showed a TGI greater than 100 µM.
Molecule `CC1(C)CC(/C=C2/OC(=O)c3ccccc32)=C(C#N)C(=O)O1` had a TGI greater than 100 µM.
The same measure, in the same setting: in the case of `Cc1nc2c(nc1Cl)nc(Oc1ccc(Cl)cc1)c1ccccc12` it was greater than 100 µM; in that of `CC12CC[C@@H](C(C)(C)O)C1[C@@H](O)CC1(C)C2CCC2[C@@]3(C)CC[C@H](O)C(C)(C)C3C(O)C[C@]21C` (stereo partly drawn), 66.7 µM.
For the molecule `O=C(CI)NC1Oc2ccccc2-c2oc(=O)c(-c3ccccc3)cc21` (stereo not drawn), the GI50 was 1810 nM and the TGI was found to be 3.92 µM.
`Cc1ccc(C)c(NC(=O)CC/C(=N\NC(=O)C(=O)NN)C(C)C(=O)c2ccc(O)cc2)c1` (stereo not drawn): the TGI was greater than 100 µM.
Molecule `N=C1CSC2=NC3=C(CCC/C3=C\c3ccccc3)C(c3ccccc3)N12` (stereo not drawn) displayed a TGI of 21.3 µM.
Molecule `COc1ccccc1C1C(C(=O)Nc2ccccc2)=C(C)NC(C)=C1C(=O)Nc1ccccc1` registered a TGI of 65.2 µM.
Same read-out and setting: next, `OCc1ccc2[n+](c1)CCC1c3ccccc3NC21` (stereo not drawn): greater than 300 µM.
Consider `Cc1cc2c(cc1C)[n+](=O)c(C(=O)CC(=O)C(=O)Nc1c(C(C)C)cccc1C(C)C)c(C)n2[O-]`, for which the TGI was greater than 100 µM.
For `COc1ccc2cc1Oc1ccc(cc1)CC1c3cc(c(OC)cc3CCN1C)Oc1c3c(cc4c1C(C2)N(C)CC4)OCO3` (stereo not drawn), the TGI came out at 18.4 µM.
In turn, `COc1ccc(OC)c(NC(=O)C(=O)C(C(C)=O)c2nc3ccc(Cl)cc3[nH]c2=O)c1` (stereo not drawn) registered a TGI greater than 50 µM.
Molecule `N#CC(C(=N/O)/C(=N/O)C(C#N)c1ccc(Cl)cc1)c1ccc(Cl)cc1` (stereo not drawn) showed a TGI greater than 100 µM.

The test system of the next test is MALME-3M melanoma. The experiment in a line: growth of human tumour cells (NCI), 48 h.
As for `CC1(Cl)C(=O)NC(=O)N(C2CC(N=[N+]=[N-])C(CO)O2)C1N=[N+]=[N-]` (stereo not drawn), the TGI was greater than 100 µM.
For the molecule `COc1ccc2ccc3c(c2c1)CN1CCc2cc(OC)c(OC)cc2C1C3` (stereo not drawn), the TGI is greater than 100 µM.
For the molecule `OCCC1(O)CCC(O)CC1` (stereo not drawn), the TGI was greater than 100 µM.
Still for that read-out and setting: in the case of `CCCCNC1=C(C(=O)OCC)C(=O)CO1` it was greater than 100 µM.
Turning to `CC(C)CC(=O)[O-].CC(C)CC(=O)[O-].N.N.N.N.[Co+3].[O-][Cl+3]([O-])([O-])[O-]`, the GI50 was greater than 100 µM and the TGI was greater than 100 µM.
Consider `COc1cc(C2c3cc4c(cc3C(NCC(O)CO)C3COC(=O)[C@H]23)OCO4)cc(OC)c1OC` (stereo partly drawn), for which the TGI is greater than 100 µM.
`COC(=O)CC(=O)C[P+](c1ccccc1)(c1ccccc1)c1ccccc1` had a TGI greater than 218 µM.
